# Measured values as given in ChEMBL document CHEMBL1125402, “Conformational effects on the activity of drugs. 13. A revision of previously proposed models for the activation of alpha- and beta-adrenergic receptors” (J Med Chem, 1992).
# Assays:
# [1] = biological target: T1, Beta-1 adrenergic receptor (Rattus norvegicus, UniProt P18090)
# Description: Compound was evaluated for beta adrenergic binding affinity towards Beta-1 adrenergic receptor of rat brain
# [2] = biological target: T2, Adrenergic receptor alpha-1 (Rattus norvegicus, UniProt P15823+P23944+P43140); assay: Binding affinity towards Alpha-1 adrenergic receptor of rat brain
# T2 sequence (P15823 whole entry): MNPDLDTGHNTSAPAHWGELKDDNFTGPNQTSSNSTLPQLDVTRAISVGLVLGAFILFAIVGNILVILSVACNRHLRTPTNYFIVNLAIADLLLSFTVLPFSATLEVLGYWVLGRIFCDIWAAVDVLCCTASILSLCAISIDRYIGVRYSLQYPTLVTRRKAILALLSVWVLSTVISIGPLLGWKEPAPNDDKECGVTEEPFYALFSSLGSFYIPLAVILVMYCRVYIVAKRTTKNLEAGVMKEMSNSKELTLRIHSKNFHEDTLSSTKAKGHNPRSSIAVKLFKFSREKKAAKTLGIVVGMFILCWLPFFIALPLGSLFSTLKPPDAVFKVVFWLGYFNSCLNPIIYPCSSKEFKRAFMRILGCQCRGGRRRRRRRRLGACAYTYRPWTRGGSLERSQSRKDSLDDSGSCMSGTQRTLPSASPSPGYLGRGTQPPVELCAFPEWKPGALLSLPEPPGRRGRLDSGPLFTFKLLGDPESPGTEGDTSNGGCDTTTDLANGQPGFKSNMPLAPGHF
# T2 sequence (P23944 whole entry): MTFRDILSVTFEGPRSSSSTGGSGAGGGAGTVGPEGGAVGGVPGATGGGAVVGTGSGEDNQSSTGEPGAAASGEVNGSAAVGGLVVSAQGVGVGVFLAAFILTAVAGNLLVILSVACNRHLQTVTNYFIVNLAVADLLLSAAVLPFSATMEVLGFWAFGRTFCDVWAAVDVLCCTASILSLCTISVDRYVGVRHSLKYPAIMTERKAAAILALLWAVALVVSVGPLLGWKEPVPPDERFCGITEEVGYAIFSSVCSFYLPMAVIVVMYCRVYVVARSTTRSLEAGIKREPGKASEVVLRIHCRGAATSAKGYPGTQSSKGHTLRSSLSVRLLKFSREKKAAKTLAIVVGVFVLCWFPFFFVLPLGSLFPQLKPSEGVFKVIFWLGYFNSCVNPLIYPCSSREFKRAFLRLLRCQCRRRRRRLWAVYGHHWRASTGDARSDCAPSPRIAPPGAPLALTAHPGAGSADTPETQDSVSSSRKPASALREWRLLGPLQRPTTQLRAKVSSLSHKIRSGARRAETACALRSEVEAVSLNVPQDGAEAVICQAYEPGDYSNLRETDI
# T2 sequence (P43140 whole entry): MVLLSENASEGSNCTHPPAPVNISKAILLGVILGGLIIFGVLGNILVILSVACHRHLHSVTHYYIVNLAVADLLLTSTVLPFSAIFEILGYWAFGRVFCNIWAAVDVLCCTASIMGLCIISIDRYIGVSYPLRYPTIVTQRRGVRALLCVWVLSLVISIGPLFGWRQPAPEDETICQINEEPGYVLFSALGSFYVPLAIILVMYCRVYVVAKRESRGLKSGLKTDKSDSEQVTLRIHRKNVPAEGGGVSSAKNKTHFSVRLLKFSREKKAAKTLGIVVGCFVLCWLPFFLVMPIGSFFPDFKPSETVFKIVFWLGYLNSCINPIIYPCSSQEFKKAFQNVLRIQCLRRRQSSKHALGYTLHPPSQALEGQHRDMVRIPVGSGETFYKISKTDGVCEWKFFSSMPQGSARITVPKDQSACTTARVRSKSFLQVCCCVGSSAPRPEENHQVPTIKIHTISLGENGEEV
# [3] = biological target: T3, Adrenergic receptor alpha-2 (Homo sapiens) (UniProt P08913+P18825+P18089); assay: Compound was evaluated for alpha adrenoceptor agonistic activity towards alpha-2 adrenergic receptor of isolated guinea pig ileum; type: functional, tissue-based; conditions: Cavia porcellus, target entry is the homologue from another species
# [4] = biological target: Beta-1 adrenergic receptor (Cavia porcellus) (UniProt B0FL73); assay: Compound was evaluated for beta adrenoceptor agonistic activity towards Beta-1 adrenergic receptor of isolated guinea pig atria; type: functional
# Beta-1 adrenergic receptor (Cavia porcellus), sequence (B0FL73 1-467): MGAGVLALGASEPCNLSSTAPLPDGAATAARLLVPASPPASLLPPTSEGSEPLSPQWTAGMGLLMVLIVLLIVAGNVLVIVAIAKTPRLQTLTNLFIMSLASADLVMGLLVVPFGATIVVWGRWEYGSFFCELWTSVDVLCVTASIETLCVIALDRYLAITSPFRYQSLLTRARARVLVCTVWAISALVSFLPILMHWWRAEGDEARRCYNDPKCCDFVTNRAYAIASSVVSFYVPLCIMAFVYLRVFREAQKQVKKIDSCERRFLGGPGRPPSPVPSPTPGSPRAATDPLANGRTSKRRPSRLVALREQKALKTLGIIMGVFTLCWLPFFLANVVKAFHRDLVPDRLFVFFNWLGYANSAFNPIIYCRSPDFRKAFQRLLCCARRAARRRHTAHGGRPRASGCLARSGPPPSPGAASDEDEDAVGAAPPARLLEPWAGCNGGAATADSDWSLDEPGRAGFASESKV
# [5] = biological target: T3, Adrenergic receptor alpha-2 (Homo sapiens); assay: Intrinsic activity was expressed as the ratio between maximal response elicited by compound and that elicited by full agonist NE towards alpha-2 adrenergic receptor of isolated guinea pig ileum; type: functional, tissue-based; conditions: Cavia porcellus
# [6] = biological target: T4, Beta-2 adrenergic receptor (Bos taurus, UniProt Q28044); assay: Compound was evaluated for beta adrenergic binding affinity towards Beta-2 adrenergic receptor of bovine lung
# T4 sequence (Q28044 whole entry): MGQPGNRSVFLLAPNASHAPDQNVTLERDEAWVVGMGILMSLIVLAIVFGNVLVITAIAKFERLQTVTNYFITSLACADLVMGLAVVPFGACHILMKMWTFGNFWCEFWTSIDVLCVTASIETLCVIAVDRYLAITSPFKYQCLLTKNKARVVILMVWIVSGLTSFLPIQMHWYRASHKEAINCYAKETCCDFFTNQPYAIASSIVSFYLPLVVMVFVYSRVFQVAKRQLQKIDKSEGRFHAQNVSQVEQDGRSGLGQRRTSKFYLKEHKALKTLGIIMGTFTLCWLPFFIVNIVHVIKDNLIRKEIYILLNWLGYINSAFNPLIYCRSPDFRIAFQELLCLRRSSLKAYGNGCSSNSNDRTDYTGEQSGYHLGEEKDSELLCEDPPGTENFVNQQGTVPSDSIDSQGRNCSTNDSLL
# [7] = biological target: T5, Adrenergic receptor alpha-2 (Rattus norvegicus, UniProt P22086+P19328+P22909); assay: Binding affinity towards Alpha-2 adrenergic receptor of rat brain
# T5 sequence (P22086 whole entry): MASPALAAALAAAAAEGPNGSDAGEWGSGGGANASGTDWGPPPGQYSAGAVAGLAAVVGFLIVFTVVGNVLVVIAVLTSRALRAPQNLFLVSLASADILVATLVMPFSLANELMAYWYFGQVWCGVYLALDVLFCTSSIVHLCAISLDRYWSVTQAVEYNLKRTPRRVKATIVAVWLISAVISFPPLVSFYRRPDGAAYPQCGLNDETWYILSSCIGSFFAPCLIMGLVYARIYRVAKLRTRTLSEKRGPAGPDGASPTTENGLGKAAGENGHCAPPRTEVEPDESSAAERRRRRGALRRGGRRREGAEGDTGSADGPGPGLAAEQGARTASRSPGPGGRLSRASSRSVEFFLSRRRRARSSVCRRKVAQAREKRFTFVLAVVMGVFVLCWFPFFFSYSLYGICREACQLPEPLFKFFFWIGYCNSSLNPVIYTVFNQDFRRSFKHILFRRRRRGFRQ
# T5 sequence (P19328 whole entry): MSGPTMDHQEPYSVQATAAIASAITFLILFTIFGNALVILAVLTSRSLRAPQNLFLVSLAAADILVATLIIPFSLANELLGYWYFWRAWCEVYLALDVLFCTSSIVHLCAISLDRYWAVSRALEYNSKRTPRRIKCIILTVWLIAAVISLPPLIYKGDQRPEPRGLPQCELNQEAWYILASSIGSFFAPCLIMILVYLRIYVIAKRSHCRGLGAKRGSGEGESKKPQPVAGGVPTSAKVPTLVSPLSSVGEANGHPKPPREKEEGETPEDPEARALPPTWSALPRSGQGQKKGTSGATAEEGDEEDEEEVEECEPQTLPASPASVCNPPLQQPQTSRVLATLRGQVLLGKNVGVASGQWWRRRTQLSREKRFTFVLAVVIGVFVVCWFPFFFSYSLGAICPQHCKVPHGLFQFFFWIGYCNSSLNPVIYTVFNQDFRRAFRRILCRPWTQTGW
# T5 sequence (P22909 whole entry): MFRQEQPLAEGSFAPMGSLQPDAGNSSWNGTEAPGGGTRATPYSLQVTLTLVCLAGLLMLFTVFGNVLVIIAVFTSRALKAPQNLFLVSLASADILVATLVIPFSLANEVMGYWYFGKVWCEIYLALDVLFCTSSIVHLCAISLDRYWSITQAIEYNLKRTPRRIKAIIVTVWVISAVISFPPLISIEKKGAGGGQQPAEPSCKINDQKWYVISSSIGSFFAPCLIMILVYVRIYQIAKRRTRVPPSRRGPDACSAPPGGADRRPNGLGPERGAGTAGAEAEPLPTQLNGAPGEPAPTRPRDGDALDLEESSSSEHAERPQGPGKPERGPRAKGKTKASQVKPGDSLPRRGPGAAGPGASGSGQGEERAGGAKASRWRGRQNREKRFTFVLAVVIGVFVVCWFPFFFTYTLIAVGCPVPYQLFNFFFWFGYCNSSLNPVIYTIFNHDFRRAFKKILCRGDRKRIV
# [8] = biological target: T6, Adrenergic receptor alpha-1 (Rattus norvegicus) (UniProt P15823+P23944+P43140); assay: Compound was evaluated for alpha adrenoceptor agonistic activity towards Alpha-1 adrenergic receptor of isolated rat vas deferens; type: functional, tissue-based
# [9] = biological target: Beta-2 adrenergic receptor (Cavia porcellus) (UniProt Q8K4Z4); assay: Compound was evaluated for beta adrenoceptor agonistic activity towards Beta-2 adrenergic receptor of isolated guinea pig tracheal strip; type: functional
# Beta-2 adrenergic receptor (Cavia porcellus), sequence (Q8K4Z4 whole entry, looked up): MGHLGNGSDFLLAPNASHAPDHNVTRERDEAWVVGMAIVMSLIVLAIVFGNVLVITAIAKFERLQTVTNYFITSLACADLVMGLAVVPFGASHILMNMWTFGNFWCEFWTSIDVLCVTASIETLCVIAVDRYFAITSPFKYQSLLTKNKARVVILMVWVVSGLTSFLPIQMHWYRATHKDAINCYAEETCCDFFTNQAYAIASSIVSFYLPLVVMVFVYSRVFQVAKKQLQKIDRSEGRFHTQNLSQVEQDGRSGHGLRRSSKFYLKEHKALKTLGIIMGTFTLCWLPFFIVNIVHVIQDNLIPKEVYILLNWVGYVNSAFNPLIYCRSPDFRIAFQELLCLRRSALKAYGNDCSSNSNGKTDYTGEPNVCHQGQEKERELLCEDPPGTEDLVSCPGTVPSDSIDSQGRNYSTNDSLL
# [10] = biological target: Beta-1 adrenergic receptor (Cavia porcellus) (UniProt B0FL73); assay: Intrinsic activity was expressed as the ratio between maximal response elicited by compound and that elicited by full agonist ISO towards beta-1 receptor of isolated guinea pig atria; type: functional
# [11] = biological target: T6, Adrenergic receptor alpha-1 (Rattus norvegicus); assay: Intrinsic activity was expressed as the ratio between maximal response elicited by compound and that elicited by full agonist NE towards Alpha-1 adrenergic receptor of isolated rat vas deferens; type: functional, tissue-based
# [12] = biological target: Beta-2 adrenergic receptor (Cavia porcellus) (UniProt Q8K4Z4)
# Description: Compound was evaluated for beta adrenoceptor agonistic activity towards beta 2 receptor of isolated guinea pig tracheal strip
# [13] = biological target: T3, Adrenergic receptor alpha-2 (Homo sapiens); conditions: Cavia porcellus; Ileum
# Description: Intrinsic activity was expressed as the ratio between maximal response elicited by compound and that elicited by full agonist NE towards Alpha-2 adrenergic receptor of isolated guinea pig ileum
# [14] = biological target: T5, Adrenergic receptor alpha-2; assay: Compound was evaluated for alpha adrenergic binding affinity towards Alpha-2 adrenergic receptor of rat brain
# [15] = biological target: Beta-1 adrenergic receptor (Cavia porcellus) (UniProt B0FL73)
# Description: Intrinsic activity was expressed as the ratio between maximal response elicited by compound and that elicited by full agonist ISO towards Beta-1 adrenergic receptor of isolated guinea pig atria
# [16] = biological target: T4, Beta-2 adrenergic receptor; assay: Compound was evaluated for beta adrenergic binding affinity towards beta-2 receptor of bovine lung
# [17] = biological target: T6, Adrenergic receptor alpha-1 (Rattus norvegicus); assay: Intrinsic activity was expressed as the ratio between maximal response elicited by compound and that elicited by full agonist NE towards Alpha-1 adrenergic receptor of isolated rat vas deferens; ND=No data; type: functional
# [18] = biological target: T2, Adrenergic receptor alpha-1; assay: Compound was evaluated for alpha adrenergic binding affinity towards alpha-1 receptor of rat brain
# [19] = biological target: Beta-1 adrenergic receptor (Cavia porcellus) (UniProt B0FL73); assay: Compound was evaluated for beta adrenoceptor agonistic activity towards beta 1 receptor of isolated guinea pig atria; type: functional
# [20] = biological target: T6, Adrenergic receptor alpha-1 (Rattus norvegicus); assay: Compound was evaluated for alpha adrenoceptor agonistic activity towards alpha 1 receptor of isolated rat vas deferens (exp 1); type: functional, tissue-based
# [21] = biological target: T6, Adrenergic receptor alpha-1 (Rattus norvegicus); assay: Compound was evaluated for alpha adrenoceptor agonistic activity towards Alpha-1 adrenergic receptor of isolated rat vas deferens (exp 2); type: functional, tissue-based
# [22] = biological target: T1, Beta-1 adrenergic receptor; assay: Compound was evaluated for beta adrenergic binding affinity towards beta-1 receptor of rat brain
# [23] = biological target: Beta-1 adrenergic receptor (Cavia porcellus) (UniProt B0FL73); assay: Intrinsic activity was expressed as the ratio between maximal response elicited by compound and that elicited by full agonist ISO towards beta 1 receptor of isolated guinea pig atria; type: functional
# T1 sequence (P18090 whole entry): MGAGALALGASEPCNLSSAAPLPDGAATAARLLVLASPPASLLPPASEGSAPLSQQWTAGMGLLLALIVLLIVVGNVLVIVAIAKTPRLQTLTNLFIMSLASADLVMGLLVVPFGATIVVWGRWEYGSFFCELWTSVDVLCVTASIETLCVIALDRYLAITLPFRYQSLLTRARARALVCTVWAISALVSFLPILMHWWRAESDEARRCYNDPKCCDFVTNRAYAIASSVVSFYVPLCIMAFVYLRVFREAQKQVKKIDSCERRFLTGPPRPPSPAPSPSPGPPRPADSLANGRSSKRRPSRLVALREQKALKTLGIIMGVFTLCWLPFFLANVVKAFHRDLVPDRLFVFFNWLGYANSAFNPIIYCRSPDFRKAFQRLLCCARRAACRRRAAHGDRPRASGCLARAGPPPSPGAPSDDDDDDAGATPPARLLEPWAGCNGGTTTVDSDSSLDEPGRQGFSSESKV
smiles,measurement,setting,value
N[C@@H]1CCc2cc(O)c(O)cc2[C@H]1O,Ki,[1],> 100 µM
same,Ki,[2],300 nM
same,pD2,[3],6.63
same,pD2,[4],4.57
same,Intrinsic activity,[5],1.42
same,Ki,[6],71 µM
same,Ki,[7],90 nM
same,pD2,[8],4.6
same,pD2,[9],5.36
same,Intrinsic activity,[10],0.81
same,Intrinsic activity,[11],0.5
CC(C)NC1CCc2cc(O)c(O)cc2[C@H]1O (stereo partly specified),Ki,[1],> 100 µM
same,pD2,[12],6.17
same,pD2,[13],5.72
same,Ki,[2],1200 nM
same,Ki,[14],1570 nM
same,pD2,[15],4.44
same,Ki,[16],> 100 µM
same,pD2,[17],< 3.5
CC(C)NCC(O)c1ccc(O)c(O)c1 (stereo unspecified) [ISOPROTERENOL],Ki,[14],21000 nM
same,Ki,[18],35.5 µM
Oc1ccc(C2CNCCO2)cc1O (stereo unspecified),pD2,[12],4.76
same,pD2,[13],7.34
same,pD2,[19],5.31
same,Ki,[2],7400 nM
same,pD2,[20],4.88
same,Ki,[14],26 nM
same,Intrinsic activity,[21],0.91
same,Ki,[16],9.2 µM
same,Ki,[22],15 µM
same,Intrinsic activity,[23],0.91
